Columns and labels:
[1] = tested on: SJSA-1; experiment: Cell proliferation inhibition (CCK-8) against SJSA-1; assay type: cell-based; details: Homo sapiens, SJSA-1, 120 h, SJSA-1 human osteosarcoma cells, 5 days
Description: Cellular data of selected compounds against SW480 and SJSA-1 was conducted according to the following protocol.
Cells in the logarithmic growth phase were seeded into 96-well plates (Corning, 3599; 180 μL/well; 3000 cells/well for both SW480 and SJSA-1 cell lines) and cultured in an incubator (Thermo, 3111) for 24 h. Cells were then treated in triplicate by adding 20 μL/well solution containing different concentrations of the tested compounds in 5% CO2 at 37° C. for 5 days. After that, cells were treated for additional 4 h by adding 10 μL/well Cell Counting Kit-8 (CCK-8; DojinDo, CK04) solution. Finally, the absorbance was read at 450 nm with a microplate reader spectra-MAX190 (Molecular Devices, Sunnyvale, Calif.). The IC50 value was determined with SofeMax Pro, a software equipped in this reader. The cell proliferation inhibition rate was calculated as: proliferation inhibition (%)=[1-(A450 treated/A450 control)]×100%.
All the tested compounds could be dissolved in DMSO at 10^−2 M (as stock solution). […] The compounds were diluted at 9 3-fold serial concentrations beginning at the initial concentration of 10 μM (i.e., the highest final concentration to treat the cells). The detailed drug dilution protocol is: Add 5 μL stock solution (10^−2 M) into 495 μL medium, transfer 125 μL of the resulting solution (100 μM) into 250 μL medium, and repeat this till the 9th resulting concentration of 15.2 nM. Pipet 20 μL of each drug dilution into cell plates.

[2] = molecular target: GST-tag full length MDM2 (Homo sapiens (Human), UniProt Q00987); experiment: MDM2-p53 TR-FRET Binding Assays; details: MDM2 / biotin p53 peptide
Chain of GST-tag full length MDM2 (Q00987 whole entry): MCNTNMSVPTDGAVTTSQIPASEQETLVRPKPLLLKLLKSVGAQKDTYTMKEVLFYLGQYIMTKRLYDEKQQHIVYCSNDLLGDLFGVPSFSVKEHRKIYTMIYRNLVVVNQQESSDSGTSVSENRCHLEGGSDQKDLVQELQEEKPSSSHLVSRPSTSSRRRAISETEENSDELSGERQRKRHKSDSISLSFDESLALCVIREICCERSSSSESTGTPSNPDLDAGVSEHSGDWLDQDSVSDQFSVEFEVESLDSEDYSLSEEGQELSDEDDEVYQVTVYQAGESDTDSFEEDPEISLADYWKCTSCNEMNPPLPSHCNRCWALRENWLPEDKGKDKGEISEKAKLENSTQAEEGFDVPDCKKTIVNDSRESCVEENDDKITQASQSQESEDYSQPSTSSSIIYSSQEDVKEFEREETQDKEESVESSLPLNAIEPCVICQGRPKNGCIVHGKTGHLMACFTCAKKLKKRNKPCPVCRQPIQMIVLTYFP
Description: MDM2-p53 TR-FRET Binding Assays
Examples are listed in the following.

SMILES: COc1cc(C(N)=O)ccc1NC(=O)[C@@H]1N[C@@H](C[C@@H](C)C(F)(F)F)[C@@]2(C(=O)Nc3cc(Cl)ccc32)[C@H]1c1cccc(Cl)c1F (racemic) [Example 13, (2′R,3R,3′S,5′S)-N-(4-carbamoyl-2-methoxy-phenyl)-6-chloro-3′-(3-chloro-2-fluoro-phenyl)-2-oxo-5′-[(2R)-3,3,3-trifluoro-2-methyl-propyl]spiro[indoline-3,4′-pyrrolidine]-2′-carboxamide]
- IC50 [1]: ≤ 71 nM
- IC50 [2]: ≤ 7.2 nM

SMILES: COc1cc(C(N)=O)ccc1NC(=O)[C@@H]1N[C@@H](C[C@H](C)C(F)(F)F)[C@@]2(C(=O)Nc3cc(Cl)ccc32)[C@H]1c1cccc(Cl)c1F (racemic) [Example 12, (2′R,3R,3′S,5′S)-N-(4-carbamoyl-2-methoxy-phenyl)-6-chloro-3′-(3-chloro-2-fluoro-phenyl)-2-oxo-5′-[(2S)-3,3,3-trifluoro-2-methyl-propyl]spiro[indoline-3,4′-pyrrolidine]-2′-carboxamide]
- IC50 [1]: ≤ 71 nM
- IC50 [2]: ≤ 7.2 nM

SMILES: COc1cc(C(N)=O)ccc1NC(=O)[C@@H]1N[C@@H](CC(C)(C)CF)[C@@]2(C(=O)Nc3cc(Cl)ccc32)C1c1cccc(Cl)c1F (mixture of isomers) [Example 20, (4-carbamoyl-2-methoxy-phenyl) (2′R,3R,3′S,5′S)-6-chloro-3′-(3-chloro-2-fluoro-phenyl)-5′-(3-fluoro-2,2-dimethyl-propyl)-2-oxo-spiro[indoline-3,4′-pyrrolidine]-2′-carboxamide]
- IC50 [1]: ≤ 71 nM
- IC50 [2]: ≤ 3.6 nM

SMILES: CCOC(=O)c1ccc(NC(=O)[C@@H]2N[C@@H](C[C@H](C)C(F)(F)F)[C@@]3(C(=O)Nc4cc(Cl)ccc43)[C@H]2c2cccc(Cl)c2F)c(OC)c1 [Example 9b, ethyl 4-[[(2′R,3R,3′S,5′S)-6-chloro-3′-(3-chloro-2-fluoro-phenyl)-2-oxo-5′-[(2S)-3,3,3-trifluoro-2-methyl-propyl]spiro[indoline-3,4′-pyrrolidine]-2′-carbonyl]amino]-3-methoxy-benzoate]
- IC50 [1]: 71 to 550 nM

SMILES: COc1cc(C(N)=O)ccc1NC(=O)[C@@H]1N[C@@H](CC2(CF)CC2)[C@@]2(C(=O)Nc3cc(Cl)ccc32)[C@H]1c1cccc(Cl)c1F [Example 77, (2′R,3R,3′S,5′S)-N-(4-carbamoyl-2-methoxy-phenyl)-6-chloro-3′-(3-chloro-2-fluoro-phenyl)-5′-[[1-(fluoromethyl)cyclopropyl]methyl]-2-oxo-spiro[indoline-3,4′-pyrrolidine]-2′-carboxamide]
- IC50 [1]: ≤ 20 nM
- IC50 [2]: ≤ 7.2 nM

SMILES: COc1cc(C(=O)O)ccc1NC(=O)[C@@H]1N[C@@H](C[C@H](C)C(F)(F)F)[C@@]2(C(=O)Nc3cc(Cl)ccc32)[C@H]1c1cccc(Cl)c1F (racemic) [Example 10, 4-[[(2′R,3R,3′S,5′S)-6-chloro-3′-(3-chloro-2-fluoro-phenyl)-2-oxo-5′-[(2S)-3,3,3-trifluoro-2-methyl-propyl]spiro[indoline-3,4′-pyrrolidine]-2′-carbonyl]amino]-3-methoxy-benzoic acid]
- IC50 [1]: ≤ 71 nM
- IC50 [2]: ≤ 7.2 nM

SMILES: COc1cc(C(=O)O)ccc1NC(=O)[C@@H]1N[C@@H](C[C@H](C)C(F)(F)F)[C@@]2(C(=O)Nc3cc(Cl)ccc32)[C@H]1c1cccc(Cl)c1F [Example 65, 4-[[(2′R,3R,3′S,5′S)-6-chloro-3′-(3-chloro-2-fluoro-phenyl)-2-oxo-5′-[(2S)-3,3,3-trifluoro-2-methyl-propyl]spiro[indoline-3,4′-pyrrolidine]-2′-carbonyl]amino]-3-methoxy-benzoic acid]
- IC50 [1]: ≤ 20 nM
- IC50 [2]: ≤ 3.6 nM

SMILES: COc1cc(C(=O)O)ccc1NC(=O)[C@@H]1N[C@@H](CC2(CF)CC2)C2(C(=O)Nc3cc(Cl)ccc32)[C@H]1c1cccc(Cl)c1F (stereo partly shown) [Example 74, 4-{[6-chloro-4′-(3-chloro-2-fluoro-phenyl)-2′-(1-fluoromethyl-cyclopropylmethyl)-2-oxo-1,2-dihydro-spiro[indole-3,3′-pyrrolidin]e-5′-carbonyl]-amino}-3-methoxy-benzoic acid]
- IC50 [1]: ≤ 20 nM
- IC50 [2]: ≤ 7.2 nM

SMILES: COc1cc(C(N)=O)ccc1NC(=O)[C@@H]1N[C@@H](CC(C)(C)CF)[C@@]2(C(=O)Nc3cc(Cl)ccc32)C1c1cccc(Cl)c1F (single isomer, unassigned) [Example 22]
- IC50 [1]: ≤ 20 nM
- IC50 [2]: ≤ 3.6 nM

SMILES: COc1cc(C(=O)O)ccc1NC(=O)[C@@H]1N[C@@H](CC2(CF)CC2)[C@@]2(C(=O)Nc3cc(Cl)ccc32)[C@H]1c1cccc(Cl)c1F [Example 76, 4-[[(2′R,3R,3′S,5′S)-6-chloro-3′-(3-chloro-2-fluoro-phenyl)-5′-[[1-(fluoromethyl)cyclopropyl]methyl]-2-oxo-spiro[indoline-3,4′-pyrrolidine]-2′-carbonyl]amino]-3-methoxy-benzoic acid]
- IC50 [1]: ≤ 20 nM
- IC50 [2]: ≤ 7.2 nM

SMILES: COc1cc(C(=O)O)ccc1NC(=O)[C@@H]1N[C@@H](CC(C)(C)CF)[C@@]2(C(=O)Nc3cc(Cl)ccc32)[C@H]1c1cccc(Cl)c1F [Example 21, 4-[(2′R,3R,3′S,5′S)-6-chloro-3′-(3-chloro-2-fluoro-phenyl)-5′-(3-fluoro-2,2-dimethyl-propyl)-2-oxo-spiro[indoline-3,4′-pyrrolidine]-2′-carbonyl]amino-3-methoxy-benzoic acid]
- IC50 [1]: ≤ 20 nM
- IC50 [2]: ≤ 3.6 nM

SMILES: COc1cc(C(N)=O)ccc1NC(=O)[C@@H]1N[C@@H](C[C@@H](C)C(F)(F)F)[C@@]2(C(=O)Nc3cc(Cl)ccc32)[C@H]1c1cccc(Cl)c1F [Example 28, (2′R,3R,3′S,5′S)-N-(4-carbamoyl-2-methoxy-phenyl)-6-chloro-3′-(3-chloro-2-fluoro-phenyl)-2-oxo-5′-[(2R)-3,3,3-trifluoro-2-methyl-propyl]spiro[indoline-3,4′-pyrrolidine]-2′-carboxamide]
- IC50 [1]: ≤ 20 nM
- IC50 [2]: ≤ 3.6 nM

SMILES: COc1cc(C(=O)O)ccc1NC(=O)[C@@H]1N[C@@H](CC(C)(C)CF)[C@@]2(C(=O)Nc3cc(Cl)ccc32)C1c1cccc(Cl)c1F (mixture of isomers) [Example 19, 4-[(2′R,3R,3′S,5′S)-6-chloro-3′-(3-chloro-2-fluoro-phenyl)-5′-(3-fluoro-2,2-dimethyl-propyl)-2-oxo-spiro[indoline-3,4′-pyrrolidine]-2′-carbonyl]amino-3-methoxy-benzoic acid]
- IC50 [1]: ≤ 71 nM
- IC50 [2]: ≤ 3.6 nM

SMILES: COc1cc(C(N)=O)ccc1NC(=O)[C@@H]1N[C@@H](C[C@H](C)C(F)(F)F)[C@@]2(C(=O)Nc3cc(Cl)ccc32)[C@H]1c1cccc(Cl)c1F [Example 66, (2′R,3R,3′S,5′S)-N-(4-carbamoyl-2-methoxy-phenyl)-6-chloro-3′-(3-chloro-2-fluoro-phenyl)-2-oxo-5′-[(2S)-3,3,3-trifluoro-2-methyl-propyl]spiro[indoline-3,4′-pyrrolidine]-2′-carboxamide]
- IC50 [1]: ≤ 20 nM
- IC50 [2]: ≤ 3.6 nM

SMILES: COC(=O)c1ccc(NC(=O)[C@@H]2N[C@@H](CC3(CF)CC3)C3(C(=O)Nc4cc(Cl)ccc43)[C@H]2c2cccc(Cl)c2F)c(OC)c1 (stereo partly shown) [Example 73, 4-{[6-chloro-4′-(3-chloro-2-fluoro-phenyl)-2′-(1-fluoromethyl-cyclopropylmethyl)-2-oxo-1,2-dihydro-spiro[indole-3,3′-pyrrolidin]e-5′-carbonyl]-amino}-3-methoxy-benzoic acid methyl ester]
- IC50 [2]: ≤ 7.2 nM

Reference: patent US9701685B2, “Spiropyrrolidines as MDM2 inhibitors” (HUDSON BIOPHARMA INC., priority 2014, dated 2017)
